“Also recorded” adds a separate entry of the source.
Columns and labels:
[1] = target: T1, SHIP1 C2 domain (Mus musculus, UniProt Q9ES52); experiment: Protein lipid overlay assay, C2 domain; assay type: binding; settings: 200 μM AQX-MN100, 30 min pre-incubation
T1 construct: Recombinant SHIP1 C2 domain (amino acid residues 725 to 863); made in house; host or cells: E. coli, pET28C
T1 sequence (Q9ES52 725-863): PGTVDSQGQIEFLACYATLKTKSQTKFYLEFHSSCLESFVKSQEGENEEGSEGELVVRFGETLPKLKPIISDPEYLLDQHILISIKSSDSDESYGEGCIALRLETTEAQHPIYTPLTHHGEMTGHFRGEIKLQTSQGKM
Protocol: Protein Lipid Overlay Assays Protein Lipid Overlay assays were performed essentially as described (23) with minor modifications. Lyophilized phosphatidylinositol-3,4-bisphosphate diC16 (PIP2, Echelon Biosciences, Salt Lake City, Utah) was reconstituted in a 2:1.8 solution of methanol and water. PVDF membranes (Millipore, Missisauga, Ont) were initially wetted in methanol for 1 minute, and washed 3×5 min with water, and gently agitated in TBST buffer (20 mM Tris pH 7.5, 0.15 M NaCl (TBS) with 0.05% Tween 20) at 23° C. overnight. The treated membranes were air-dried and dilutions of reconstituted lipids were spotted in 1 μl aliquots to give the indicated amount of PIP2 per membrane spot. The membranes were dried completely and blocked with blocking buffer (3% BSA in TBS with 0.05% NaN3) for 1 h at 23° C. on a gentle shaker. Purified, recombinant C2 domain was diluted into blocking buffer (5 μM final) and treated with 200 μM AQX-MN100 or EtOH control for 30 min at 23° C. prior to overnight incubation with the PIP2 spotted membranes. The membranes were washed 10 times over 50 min in TBST buffer at 23° C. and were incubated with anti-His6 mouse IgG (Qiagen, Missisauga, Ont) for 1 hour at 23° C. with gentle rocking. […] The membranes were washed 3 times in TBST over 15 min at 23° C. and the bound proteins were detected and quantified on a Li-Cor Odyssey scanner (Lincoln, Nebr.). […]

[2] = system: J16 cells; experiment: Inositol phospholipid analysis in LPS-stimulated macrophages; assay type: cell-based, mouse
Protocol: Inositol phospholipid analysis. J16 cells, a macrophage cell line immortalized from C57B16 mice, were grown in 10% FCS in IMDM supplemented with 10 μM 2-mercaptoethanol, 150 μM monothioglycolate (MTG) and 1 mM glutamine. 5×10^6 cells were plated the night before in 10 cm tissue culture dishes. The next day, cells were washed three times with phosphate-free medium before being starved in phosphate free RPMI (MP Biomedicals, Irvine, Calif.) supplemented with 10% dialyzed FCS (Invitrogen, Burlington, Ont) and 1% RPMI for 2 hrs. Cells were then labeled with 1.0 mCi of ^32P-labeled orthophosphate (MP Biomedicals, Irvine, Calif.)/ml for 2 hrs at 37° C. Cells were pretreated for 30 mM with AQX-016A, LY294004 or vehicle prior to stimulation with LPS (50 ng/ml) for 15 min. Extraction of inositol phospholipids and HPLC analysis of deacylated lipids were performed as described previously (16). The amount of radioactivity contained in the elution peak for each lipid (two to five fractions) was summed to give the total counts for each lipid, and data were normalized to the first 60 fractions to adjust for fluctuations in total lipid labeling and recovery between samples. Data are expressed as the mean+/− the SEM of three independent replicates for each stimulation condition and the experiment was repeated twice.

[3] = system: SHIP1+/+ and SHIP1−/− BMmφs; experiment: LPS-stimulated PKB phosphorylation in BMmφs (immunoblot); assay type: cell-based, mouse; settings: 30 min pretreatment, 10 ng/mL LPS 15 min
Protocol: LPS stimulation of BMmφs. For the analysis of LPS-stimulated TNFα production, 2 ×10^5 cells were plated the night before in 24 well plates in BMmφp medium. The next day, the medium was changed and AQX-016A or carrier was added to cells at the indicated concentrations for 30 min prior to the addition of 10 ng/mL LPS. Supernatants were collected after 1 hr for TNFα determination by ELISA (BD Biosciences, Mississauga, ON, Canada). Data are expressed as the mean +/− SEM of triplicates and experiments were repeated 3 times. For analysis of intracellular signaling, 2×10^6 cells were plated the night before in 6 cm tissue culture plates. The next day, the cells were cultured in BMmφp medium without M-CSF for 1 hr at 37° C. and then pretreated with AQX-016A or carrier for 30 min prior to the addition of 10 ng/mL LPS for 15 min. Cells were washed with 4° C. PBS and resuspended in lysis buffer (50 mM Hepes, 2 mM EDTA, 1mM NaVO4 , 100 mM NaF, 50 mM NaPPi and 1%NP4O) supplemented with COMPLETE™ Protease Inhibitor Cocktail (Roche, Montreal, Canada). Lysates were rocked at 4° C. for 30 min and clarified by centrifuging 20 min at 12000×g. Lysates were then made 1× in Laemmli's buffer, boiled 2 min and loaded onto 7.5% SDS polyacrylamide cells. […]

[4] = system: SHIP1+/+ and SHIP1−/− BMMCs; experiment: Intracellular signaling after FcεR1 crosslinking in BMMCs (immunoblot); assay type: cell-based, mouse; settings: 10 μg/ml, 30 min; 20 ng/ml DNP-HSA 5 min
Protocol: Stimulation of BMMCs by FcεR1 crosslinking. SHIP1+/+ and SHIP1−/− BMMCs were pre-loaded overnight in BMMC medium lacking IL-3 with 0.1 μg/ml anti-DNP IgE (SPE-7, Sigma, Oakville, Ont). For calcium flux measurements, the cells were incubated with 2 μM fura 2-acetoxymethyl ester (Molecular Probes, Eugene, Oreg.) in Tyrode's buffer at 23° C. for 45 min. The cells were then washed and incubated in the presence of vehicle control, LY294002 or AQX-016A 30 min prior to stimulation with the indicated concentration of DNP-human serum albumin (DNP-HSA). Calcium influx was then monitored by spectrofluorometry as described previously (19). Experiments were repeated at least 3 times. For analysis of intracellular signaling, cells were pre-loaded with anti-DNP IgE as above, pre-treated with AQX-016A or buffer control for 30 min at 37° C. and stimulated with 20 ng/ml DNP-HSA for 5 min. Total cell lysates were then prepared and analyzed for phospho-PKB, phospho-p38MAPK, phospho-MAPK, Grb-2 (Cell Signalling, Mississauga, Ont) and SHIP1 (18) by immunoblot analysis as described previously (20). Results are representative of 3 independent experiments.

| SMILES | inhibition of C2 domain binding to phosphatidylinositol lipid (PI-3,4-P2 / PIP3) [1] | PIP3 levels after LPS stimulation ([2]; 30 min pretreatment with 5 mg/mL AQX-016A or 25 μM LY294002, LPS 15 min) | PI-3,4-P2 levels after LPS stimulation ([2]; 30 min pretreatment with AQX-016A or 25 μM LY294002, LPS 15 min) | LPS-stimulated PKB phosphorylation, SHIP1+/+ vs SHIP1−/− BMmφs [3] | phosphorylation of PKB, p38MAPK and ERK, SHIP1+/+ vs SHIP1−/− BMMCs [4] |
| --- | --- | --- | --- | --- | --- |
| Cc1cc(O)cc2c1[C@]1(C)CC[C@H]3C(C)(C)CCC[C@]3(C)[C@H]1C2 [AQX-MN100] | could compete with PI-3,4-P2 for binding; also recorded: inhibits the binding of the C2; also recorded: is inhibited | – | – | – | – |
| Cc1cc(O)c(O)c2c1[C@]1(C)CC[C@H]3C(C)(C)CCC[C@]3(C)[C@H]1C2 [AQX-016A] | – | abolished this increase | corresponding increase | preferentially inhibited, in a dose dependent manner, LPS-stimulated PKB phosphorylation in SHIP1+/+ but not in SHIP1−/− | inhibited the phosphorylation of PKB, p38MAPK and ERK in SHIP1+/+ but not in SHIP1−/− |

Reference: patent publication US8956824B2, “Methods for identifying allosteric modulators of ship polypeptides” (British Columbia Cancer Agency Branch, priority 2006, dated 2015)
